Measurements: EPA's ToxValDB 9.5 (doi:10.2903/j.efsa.2015.3936)

Tests used:
Apis mellifera = conditions: acute, mortality
Daphnia magna = conditions: chronic/long-term; duration: 21 days; reproduction
Folsomia candida = conditions: chronic/long-term; duration: 28 days
Oncorhynchus mykiss = conditions: chronic/long-term; duration: 21 days; growth
Oryctolagus sp. = conditions: developmental; development
Rattus norvegicus = conditions: for NOAEL: chronic
Aphidius rhopalosiphi = assay: LR50; higher = less toxic; conditions: other; mortality
Typhlodromus pyri = assay: LR50; higher = less toxic; conditions: other; mortality

`COC(=O)c1ccccc1S(=O)(=O)NC(=O)Nc1nc(C)nc(OC)n1` [Metsulfuron-methyl] was tested, and the LD50 (Anas platyrhynchos; acute, oral, unspecified) was > 2510 mg/kg-day, the NOAEL (Anas platyrhynchos; reproductive) was 100 mg/kg-day and the LC50 (Anas platyrhynchos; short-term, oral, feed) was > 1280 mg/kg-day. The LD50 (Apis mellifera; dermal) was > 50 µg/piece, the LD50 (Apis mellifera; oral, unspecified) was > 44.3 µg/piece and the NOEC (Daphnia magna) was 3.13 mg/L. For the same molecule, the NOEC (Folsomia candida) was ≥ 250 mg/kg, the NOEC (Oncorhynchus mykiss) was 68 mg/L and the NOAEL (Oryctolagus sp.) was 25 mg/kg-day. For the same molecule, the LD50 (Rattus norvegicus; acute, oral, mortality) was > 5000 mg/kg-day, the NOAEL (Rattus norvegicus) was 25 mg/kg-day and the NOAEL (Rattus norvegicus; duration: 2 years, body weight) was 22.4 mg/kg-day. The LC50 (Tagia sp.; acute, duration: 14 days, mortality) was > 1000 mg/kg, the NOEC (Tagia sp.; chronic/long-term, duration: 56 days) was 0.83 mg/kg and the LR50 (Aphidius rhopalosiphi) was > 8 g/ha. The LR50 (Typhlodromus pyri) was > 8 g/ha.
